Data on one molecule can be found in ChEMBL document CHEMBL4007400, “Role of Reactive Oxygen Species (ROS) in Therapeutics and Drug Resistance in Cancer and Bacteria” (J Med Chem, 2017).

The target in the assay is T1, 4,4'-diapophytoene synthase (Staphylococcus aureus, UniProt A9JQL9).
T1 sequence (A9JQL9 whole entry): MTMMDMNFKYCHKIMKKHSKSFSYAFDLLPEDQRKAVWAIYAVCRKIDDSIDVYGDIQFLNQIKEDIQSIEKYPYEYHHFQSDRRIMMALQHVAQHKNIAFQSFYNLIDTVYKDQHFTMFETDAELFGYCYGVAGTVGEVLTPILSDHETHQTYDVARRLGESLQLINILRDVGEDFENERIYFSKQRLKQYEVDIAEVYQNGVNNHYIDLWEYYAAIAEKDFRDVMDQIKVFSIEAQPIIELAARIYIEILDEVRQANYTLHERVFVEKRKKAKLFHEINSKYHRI
Put plainly: Inhibition of Staphylococcus aureus ATCC 27659 histidine-tagged full length CrtM expressed in Escherichia coli BL21(DE3) cells assessed as decrease in staphyloxanthin formation after 30 mins by continous spectrophotometric method.

In general, Ki refers to a measure of affinity in units of concentration, obtained from inhibition or displacement. Consider `O=P(O)(O)C(CCCc1cccc(Oc2ccccc2)c1)S(=O)(=O)O` (stereo unspecified), for which the inhibition constant (Ki) was 1.5 nM.
